According to ChEMBL document CHEMBL1201861, “Genomics of Drug Sensitity in Cancer screening data, Wellcome Trust Sanger Institute”:

Experiments:
DOK = experiment: cells; assay type: functional, cell-based, Homo sapiens; settings: Homo sapiens, DOK;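 further: cell viability assay read-out, values reflect inhibition of cell growth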
Description: SANGER: Inhibition of human DOK cell growth in a cell viability assay.

Daoy = experiment: cells; assay type: functional, cell-based, Homo sapiens; settings: Homo sapiens, Daoy;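 further: daoy cell growth inhibition, read out as cell viability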
Description: SANGER: Inhibition of human Daoy cell growth in a cell viability assay.

EB2 = experiment: cells; assay type: functional, cell-based, Homo sapiens; settings: Homo sapiens, EB2;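 further: growth inhibition of EB2 cells, read out with a cell viability assay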
Description: SANGER: Inhibition of human EB2 cell growth in a cell viability assay.

HCC1569 = experiment: cells; assay type: functional, cell-based, Homo sapiens; settings: Homo sapiens, HCC1569;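 further: growth inhibition of human HCC1569 cells, read out with a cell viability assay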
Description: SANGER: Inhibition of human HCC1569 cell growth in a cell viability assay.

HCC1599 = experiment: cells; assay type: functional, cell-based, Homo sapiens; settings: Homo sapiens, HCC1599;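 further: growth inhibition of HCC1599 cells, read out in a cell viability assay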
Description: SANGER: Inhibition of human HCC1599 cell growth in a cell viability assay.

HCC1937 = experiment: cells; assay type: functional, cell-based, Homo sapiens; settings: Homo sapiens, HCC1937;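 further: growth inhibition measured with a cell viability read-out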
Description: SANGER: Inhibition of human HCC1937 cell growth in a cell viability assay.

HCC38 = experiment: cells; assay type: functional, cell-based, Homo sapiens; settings: Homo sapiens, HCC38;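 further: cell viability assay on the human HCC38 cell line, with IC50 marking the concentration that inhibits cell growth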
Description: SANGER: Inhibition of human HCC38 cell growth in a cell viability assay.

HN = experiment: cells; assay type: functional, cell-based, Homo sapiens; settings: Homo sapiens, HN
Description: SANGER: Inhibition of human HN cell growth in a cell viability assay.

HOP-92 = experiment: cells; assay type: functional, cell-based, Homo sapiens; settings: Homo sapiens, HOP-92;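 further: cell viability readout, with IC50 reflecting inhibition of HOP-92 cell growth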
Description: SANGER: Inhibition of human HOP-92 cell growth in a cell viability assay.

HT-1376 = experiment: cells; assay type: functional, cell-based, Homo sapiens; settings: Homo sapiens, HT-1376
Description: SANGER: Inhibition of human HT-1376 cell growth in a cell viability assay.

HT-29 = experiment: cells; assay type: functional, cell-based, Homo sapiens; settings: Homo sapiens, HT-29;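 further: growth inhibition of human HT-29 cells, read out by a cell viability assay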
Description: SANGER: Inhibition of human HT-29 cell growth in a cell viability assay.

KMS-12-PE = experiment: cells; assay type: functional, cell-based, Homo sapiens; settings: Homo sapiens, KMS-12-PE;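 further: growth inhibition of human KMS-12-PE cells, measured with a cell viability assay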
Description: SANGER: Inhibition of human KMS-12-PE cell growth in a cell viability assay.

KP-4 = experiment: cells; assay type: functional, cell-based, Homo sapiens; settings: Homo sapiens, KP-4;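 further: human KP-4 cells, with growth inhibition read out through a cell viability assay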
Description: SANGER: Inhibition of human KP-4 cell growth in a cell viability assay.

KP-N-YN = experiment: cells; assay type: functional, cell-based, Homo sapiens; settings: Homo sapiens, KP-N-YN;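 further: growth inhibition of KP-N-YN cells, read out with a cell viability assay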
Description: SANGER: Inhibition of human KP-N-YN cell growth in a cell viability assay.

KYSE-510 = experiment: cells; assay type: functional, cell-based, Homo sapiens; settings: Homo sapiens, KYSE-510;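 further: cell viability readout used to measure how strongly growth of the cell line is suppressed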
Description: SANGER: Inhibition of human KYSE-510 cell growth in a cell viability assay.

LCLC-97TM1 = experiment: cells; assay type: functional, cell-based, Homo sapiens; settings: Homo sapiens, LCLC-97TM1;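 further: cell viability assay measuring growth inhibition of human LCLC-97TM1 cells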
Description: SANGER: Inhibition of human LCLC-97TM1 cell growth in a cell viability assay.

LN-405 = experiment: cells; assay type: functional, cell-based, Homo sapiens; settings: Homo sapiens, LN-405
Description: SANGER: Inhibition of human LN-405 cell growth in a cell viability assay.

NCI-H187 = experiment: cells; assay type: functional, cell-based, Homo sapiens; settings: Homo sapiens, NCI-H187;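 further: growth inhibition of NCI-H187 cells, read out as cell viability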
Description: SANGER: Inhibition of human NCI-H187 cell growth in a cell viability assay.

NCI-H2030 = experiment: cells; assay type: functional, cell-based, Homo sapiens; settings: Homo sapiens, NCI-H2030;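 further: growth inhibition of human NCI-H2030 cells, read out by a cell viability assay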
Description: SANGER: Inhibition of human NCI-H2030 cell growth in a cell viability assay.

NCI-H2196 = experiment: cells; assay type: functional, cell-based, Homo sapiens; settings: Homo sapiens, NCI-H2196;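 further: cell viability assay used as the readout of growth inhibition in NCI-H2196 cells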
Description: SANGER: Inhibition of human NCI-H2196 cell growth in a cell viability assay.

NCI-H345 = experiment: cells; assay type: functional, cell-based, Homo sapiens; settings: Homo sapiens, NCI-H345;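 further: growth inhibition of NCI-H345 cells measured with a cell viability assay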
Description: SANGER: Inhibition of human NCI-H345 cell growth in a cell viability assay.

NCI-H522 = experiment: cells; assay type: functional, cell-based, Homo sapiens; settings: Homo sapiens, NCI-H522;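 further: cell viability assay measuring growth inhibition of human NCI-H522 cells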
Description: SANGER: Inhibition of human NCI-H522 cell growth in a cell viability assay.

NCI-H889 = experiment: cells; assay type: functional, cell-based, Homo sapiens; settings: Homo sapiens, NCI-H889;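 further: cell growth inhibition of the cell line, read out with a viability assay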
Description: SANGER: Inhibition of human NCI-H889 cell growth in a cell viability assay.

OVCAR-5 = experiment: cells; assay type: functional, cell-based, Homo sapiens; settings: Homo sapiens, OVCAR-5;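 further: growth inhibition of human OVCAR-5 cells, read out with a cell viability assay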
Description: SANGER: Inhibition of human OVCAR-5 cell growth in a cell viability assay.

PC-3 = experiment: cells; assay type: functional, cell-based, Homo sapiens; settings: Homo sapiens, PC-3;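 further: cell viability assay measuring growth inhibition of PC-3 cells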
Description: SANGER: Inhibition of human PC-3 cell growth in a cell viability assay.

RD = experiment: cells; assay type: functional, cell-based, Homo sapiens; settings: Homo sapiens, RD
Description: SANGER: Inhibition of human RD cell growth in a cell viability assay.

RL = experiment: cells; assay type: functional, cell-based, Homo sapiens; settings: Homo sapiens, RL
Description: SANGER: Inhibition of human RL cell growth in a cell viability assay.

S-117 = experiment: cells; assay type: functional, cell-based, Homo sapiens; settings: Homo sapiens, S-117
Description: SANGER: Inhibition of human S-117 cell growth in a cell viability assay.

SJRH30 = experiment: cells; assay type: functional, cell-based, Homo sapiens; settings: Homo sapiens, SJRH30;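 further: growth inhibition of human SJRH30 cells, read out with a cell viability assay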
Description: SANGER: Inhibition of human SJRH30 cell growth in a cell viability assay.

SK-MES-1 = experiment: cells; assay type: functional, cell-based, Homo sapiens; settings: Homo sapiens, SK-MES-1;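 further: growth inhibition of human SK-MES-1 cells, read out with a cell viability assay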
Description: SANGER: Inhibition of human SK-MES-1 cell growth in a cell viability assay.

SK-MM-2 = experiment: cells; assay type: functional, cell-based, Homo sapiens; settings: Homo sapiens, SK-MM-2;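 further: growth inhibition of human SK-MM-2 cells, read out with a cell viability assay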
Description: SANGER: Inhibition of human SK-MM-2 cell growth in a cell viability assay.

SK-OV-3 = experiment: cells; assay type: functional, cell-based, Homo sapiens; settings: Homo sapiens, SK-OV-3;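 further: growth inhibition of SK-OV-3 human cells, read out with a cell viability assay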
Description: SANGER: Inhibition of human SK-OV-3 cell growth in a cell viability assay.

SKG-IIIa = experiment: cells; assay type: functional, cell-based, Homo sapiens; settings: Homo sapiens, SKG-IIIa;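 further: cell growth inhibition, read out with a cell viability assay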
Description: SANGER: Inhibition of human SKG-IIIa cell growth in a cell viability assay.

SN12C = experiment: cells; assay type: functional, cell-based, Homo sapiens; settings: Homo sapiens, SN12C;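 further: growth inhibition of human SN12C cells, measured by a cell viability assay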
Description: SANGER: Inhibition of human SN12C cell growth in a cell viability assay.

SW13 = experiment: cells; assay type: functional, cell-based, Homo sapiens; settings: Homo sapiens, SW13;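 further: IC50 is inhibition of SW13 cell growth, read out with a cell viability assay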
Description: SANGER: Inhibition of human SW13 cell growth in a cell viability assay.

SW1783 = experiment: cells; assay type: functional, cell-based, Homo sapiens; settings: Homo sapiens, SW1783
Description: SANGER: Inhibition of human SW1783 cell growth in a cell viability assay.

SW1990 = experiment: cells; assay type: functional, cell-based, Homo sapiens; settings: Homo sapiens, SW1990
Description: SANGER: Inhibition of human SW1990 cell growth in a cell viability assay.

SW780 = experiment: cells; assay type: functional, cell-based, Homo sapiens; settings: Homo sapiens, SW780;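 further: growth inhibition of the cells, read out with a cell viability assay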
Description: SANGER: Inhibition of human SW780 cell growth in a cell viability assay.

T47D = experiment: cells; assay type: functional, cell-based, Homo sapiens; settings: Homo sapiens, T47D;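 further: growth inhibition of human T47D cells, measured with a cell viability assay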
Description: SANGER: Inhibition of human T47D cell growth in a cell viability assay.

23132-87 = experiment: cells; assay type: functional, cell-based, Homo sapiens; settings: Homo sapiens
Description: SANGER: Inhibition of human 23132-87 cell growth in a cell viability assay.

A 172 = experiment: cells; assay type: functional, cell-based, Homo sapiens; settings: Homo sapiens, A 172;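 further: growth inhibition of A172 cells, measured with a cell viability readout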
Description: SANGER: Inhibition of human A172 cell growth in a cell viability assay.

A-431 = experiment: cells; assay type: functional, cell-based, Homo sapiens; settings: Homo sapiens, A-431;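 further: growth inhibition of A-431 cells, determined with a cell viability read-out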
Description: SANGER: Inhibition of human A431 cell growth in a cell viability assay.

BC1 cell line = experiment: SANGER: Inhibition of human BC-1 cell growth in a cell viability assay.; assay type: functional, cell-based; settings: Homo sapiens, BC1
BC-3 = experiment: cells; assay type: functional, cell-based, Homo sapiens; settings: Homo sapiens, BC-3;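 further: cell viability assay measuring growth inhibition of human BC-3 cells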
Description: SANGER: Inhibition of human BC-3 cell growth in a cell viability assay.

BEN = experiment: cells; assay type: functional, cell-based, Homo sapiens; settings: Homo sapiens, BEN;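 further: growth inhibition of the BEN cell line, read out with a cell viability assay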
Description: SANGER: Inhibition of human BEN cell growth in a cell viability assay.

C-33-A = experiment: cells; assay type: functional, cell-based, Homo sapiens; settings: Homo sapiens, C-33-A;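 further: cell viability assay measuring growth inhibition of C-33-A cells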
Description: SANGER: Inhibition of human C-33-A cell growth in a cell viability assay.

UO-31 = experiment: cells; assay type: functional, cell-based, Homo sapiens; settings: Homo sapiens, UO-31
Description: SANGER: Inhibition of human U031 cell growth in a cell viability assay.

CCC/C=C/C=C/C(=O)O[C@H]1/C(=C/C(=O)OC)C[C@H]2C[C@H]([C@@H](C)O)OC(=O)C[C@H](O)C[C@@H]3C[C@H](OC(C)=O)C(C)(C)[C@](O)(C[C@@H]4C/C(=C/C(=O)OC)C[C@H](/C=C/C(C)(C)[C@]1(O)O2)O4)O3 [BRYOSTATIN 1]
IC50 (DOK): > 8 nM
IC50 (Daoy): > 8 nM
IC50 (EB2): > 8 nM
IC50 (HCC1569): > 8 nM
IC50 (HCC1599): > 8 nM
IC50 (HCC1937): > 8 nM
IC50 (HCC38): > 8 nM
IC50 (HN): > 8 nM
IC50 (HOP-92): > 8 nM
IC50 (HT-1376): > 8 nM
IC50 (HT-29): > 8 nM
IC50 (KMS-12-PE): > 8 nM
IC50 (KP-4): > 8 nM
IC50 (KP-N-YN): > 8 nM
IC50 (KYSE-510): > 8 nM
IC50 (LCLC-97TM1): > 8 nM
IC50 (LN-405): > 8 nM
IC50 (NCI-H187): > 8 nM
IC50 (NCI-H2030): > 8 nM
IC50 (NCI-H2196): > 8 nM
IC50 (NCI-H345): > 8 nM
IC50 (NCI-H522): > 8 nM
IC50 (NCI-H889): > 8 nM
IC50 (OVCAR-5): > 8 nM
IC50 (PC-3): > 8 nM
IC50 (RD): > 8 nM
IC50 (RL): > 8 nM
IC50 (S-117): 5.92 nM
IC50 (SJRH30): > 8 nM
IC50 (SK-MES-1): > 8 nM
IC50 (SK-MM-2): > 8 nM
IC50 (SK-OV-3): > 8 nM
IC50 (SKG-IIIa): > 8 nM
IC50 (SN12C): > 8 nM
IC50 (SW13): > 8 nM
IC50 (SW1783): > 8 nM
IC50 (SW1990): > 8 nM
IC50 (SW780): > 8 nM
IC50 (T47D): > 8 nM
IC50 (23132-87): > 8 nM
IC50 (A 172): > 8 nM
IC50 (A-431): > 8 nM
IC50 (BC1 cell line): > 8 nM
IC50 (BC-3): > 8 nM
IC50 (BEN): > 8 nM
IC50 (C-33-A): > 8 nM
IC50 (UO-31): > 8 nM

COc1cccc2c1C(=O)c1c(O)c3c(c(O)c1C2=O)C[C@@](O)(C(=O)CO)C[C@@H]3O[C@H]1C[C@H](N)[C@H](O)[C@H](C)O1 [DOXORUBICIN]
IC50 (DOK): 1020 nM
IC50 (Daoy): 8.07 nM
IC50 (EB2): 33.7 nM
IC50 (HCC1569): 109 nM
IC50 (HCC1599): 72.5 nM
IC50 (HCC1937): 116 nM
IC50 (HCC38): 42.5 nM
IC50 (HN): 354 nM
IC50 (HOP-92): 291 nM
IC50 (HT-1376): 189 nM
IC50 (HT-29): 36.6 nM
IC50 (KMS-12-PE): 418 nM
IC50 (KP-4): 40.8 nM
IC50 (KP-N-YN): > 1020 nM
IC50 (KYSE-510): 15.5 nM
IC50 (LCLC-97TM1): 11.8 nM
IC50 (LN-405): > 1020 nM
IC50 (NCI-H187): 493 nM
IC50 (NCI-H2030): 28.3 nM
IC50 (NCI-H2196): 229 nM
IC50 (NCI-H345): > 1020 nM
IC50 (NCI-H522): 51.9 nM
IC50 (NCI-H889): > 1020 nM
IC50 (OVCAR-5): 117 nM
IC50 (PC-3): 957 nM
IC50 (RD): 180 nM
IC50 (RL): > 1020 nM
IC50 (S-117): > 1020 nM
IC50 (SJRH30): 173 nM
IC50 (SK-MES-1): 31.5 nM
IC50 (SK-MM-2): 942 nM
IC50 (SK-OV-3): 50.1 nM
IC50 (SKG-IIIa): 311 nM
IC50 (SN12C): 395 nM
IC50 (SW13): 115 nM
IC50 (SW1783): 98 nM
IC50 (SW1990): 202 nM
IC50 (SW780): > 1020 nM
IC50 (T47D): 470 nM
IC50 (23132-87): 15.4 nM
IC50 (A 172): 80.5 nM
IC50 (A-431): 20.9 nM
IC50 (BC1 cell line): 86.8 nM
IC50 (BC-3): 166 nM
IC50 (BEN): > 1020 nM
IC50 (C-33-A): 32.9 nM
IC50 (UO-31): 354 nM
